Laboratory results from paper PMC10714390, “Quinoline Compounds Targeting the c-Ring of ATP Synthase Inhibit Drug-Resistant Pseudomonas aeruginosa” (ACS Infectious Diseases, 2023).
Several values for one entry are separate records, joined by “and”; a condition that tells them apart may be missing. Equal values may be shown once. Read-outs that look alike come from different tables or passages of the source.

Legend:
[1] = system: P. aeruginosa efflux knockout GKCW120 (PΔ6); parameters: method as in PMID 35990476; conditions: cited from earlier work
[2] = system: EC electron transport chain; assay: Electron transport activity (NADH-driven H+ pumping, ACMA quenching), E. coli DK8/pASH20 vesicles; type: biochemical, Escherichia coli
Description: Determination of electron transport activity. In an opaque black 96-well plate, inverted membrane
vesicles from PA or E. coli DK8 pASH20 were added to HMK buffer containing 0.3 µg/mL 9-amino-6-chloro-
2-methoxyacridine (ACMA) and 0-64 µg/mL test compound in DMSO. After measurement of baseline
ACMA fluorescence for 60 s, redox-driven H+ pumping was initiated by addition of NADH to 0.8 mM, and
fluorescence quenching was monitored for 120 s before addition of nigericin to 0.5 µg/mL. Relative
activity is reported as the minimum fluorescence value normalized to the maximum fluorescence value
following addition of nigericin. […]

[3] = biological target: T1, PA ATP synthase expressed in E. coli DK8/pASH20 (Pseudomonas aeruginosa, UniProt Q9HT15); assay: NADH-driven ATP synthesis inhibition, DK8/pASH20 membrane vesicles; type: biochemical
T1 construct: expressed in transfected cells; host or cells: E. coli K-12 DK8 (lacks its own ATP synthase) transformed with pASH20 (pBR322 derivative)
Description: (§1) P. aeruginosa (ATCC 9027) was streaked onto a 10% TSB agar plate and incubated at room temperature for 72 h. A single colony was resuspended in 100 μL of H2O, and 5 μL was used as the DNA template for PCR with Q5 polymerase (NEB) and […] each of forward and reverse primers. Primers were complementary to regions flanking the atp operon and included sequences for HindIII and NdeI restriction sites (see the SI for primer sequences). The resulting 6.9 kbp DNA fragment was digested with HindIII and NdeI and ligated into digested vector pBR322 (New England Biolabs). The resultant pASH20(-i) plasmid contains a partial atpI gene. To complete the atpI gene, the HindII-XhoI fragment of pASH20(-i) was replaced with a synthetic fragment with a complete atpI (Twist Bioscience) to yield pASH20. The sequence of the entire operon was verified by Sanger DNA sequencing through the ligation sites. Subunit c mutations were introduced by exchanging the XhoI-BamHI fragment containing atpE with a synthetic fragment containing mutated atpE (Twist Bioscience).
(§2) Vesicles were prepared from P. aeruginosa and transformed E. coli cells as previously described.[22] Briefly, cells were grown in LB liquid medium at 37 °C with shaking and harvested by centrifugation after 7 h of growth. Cultures of transformant E. coli included 100 μg/mL ampicillin. Cells were disrupted in TMG buffer (50 mM Tris-HCl, MgCl2, 10% (v/v) glycerol, pH 7.5) using an Avestin B15 homogenizer at 19,000 psi. After unbroken cells and debris were cleared by centrifugation at 9000g, inverted vesicles were collected by centrifugation at 193,000g, resuspended in TMG buffer, and stored at −80 °C. Protein concentrations were determined using a modified Lowry assay.[25]
(§3) Continuous ATP synthesis activity of inverted membrane vesicles was measured using a luciferin/luciferase luminescence assay as previously described.[22] Inhibition of ATP synthesis activity by test compounds was determined using an end point assay essentially as previously described.[18],[26] In this assay, the synthesis reaction was initiated by 2.5 mM NADH, proceeded for 10 min, and was stopped with 1% trichloroacetic acid, 2 mM CCCP, and 10 mM EDTA. Samples from each reaction were diluted 500-fold prior to the addition of luciferase since quinoline compounds are known to inhibit luciferase.[27] This dilution was sufficient to minimize inhibition of luciferase (Figure S4). Each replicate set included a positive control containing DMSO with no compound and a negative control containing carbonyl cyanide m-chlorophenyl hydrazone. Luminescence values were corrected for the background by subtracting the negative control and then normalized to the positive control within the same replicate. Dose–response curves were fit using eq 1, where activity is the relative ATP synthesis activity, [I] is the concentration of inhibitor in μg/mL, and n is the Hill coefficient. [drawing 1] 1

PA ATP synthase [4] = biological target: T2, PA ATP synthase (Pseudomonas aeruginosa, UniProt Q9HT15); parameters: method as in PMID 35990476; conditions: PA membrane vesicles; cited from earlier work
T2 construct: Inverted membrane vesicles were prepared from PA 9027; endogenous in cells; host or cells: Pseudomonas aeruginosa ATCC 9027, inverted membrane vesicles

[5] = biological target: T3, PA ATP synthase cIle65Ala mutant (Pseudomonas aeruginosa, UniProt Q9HT15, I65A); assay: NADH-driven ATP synthesis inhibition, DK8/pASH20 cI65A membrane vesicles; type: biochemical
T3 construct: expressed in transfected cells; host or cells: E. coli K-12 DK8 transformed with pASH20 carrying mutated atpE
Description: as §1, §2, §3

PA ATP synthase [6] = biological target: T2, PA ATP synthase; assay: NADH-driven ATP synthesis inhibition, PA inverted membrane vesicles; type: biochemical; conditions: inhibition of ATP synthesis activity
Description: as §2, §3

[7] = system: PA electron transport chain; parameters: method as in PMID 35990476; conditions: PA vesicles; cited from earlier work
[8] = biological target: T4, PA ATP synthase cIle65Phe mutant (Pseudomonas aeruginosa, UniProt Q9HT15, I65F); assay: NADH-driven ATP synthesis inhibition, DK8/pASH20 cI65F membrane vesicles; type: biochemical
T4 construct: expressed in transfected cells; host or cells: E. coli K-12 DK8 transformed with pASH20 carrying mutated atpE
Description: as §1, §2, §3

[9] = system: P. aeruginosa (ATCC 9027); parameters: method as in PMID 35990476; conditions: cited from earlier work
E. coli (ATCC 25922) = system: E. coli (ATCC 25922); parameters: method as in PMID 35990476; conditions: cited from earlier work
[10] = system: P. aeruginosa efflux knockout GKCW120 (PΔ6); assay: Antimicrobial susceptibility (broth microdilution), PΔ6 efflux knockout; type: cell-based, Pseudomonas aeruginosa; conditions: n = 3; >85% reduction in growth at OD 590 nm
Description: (§4) The following are general steps, unless otherwise noted. All steps were completed using aseptic techniques. All media and glassware were sterilized via an autoclave at 121 °C for 60 min. All agitation occurred at 160 rpm in a temperature-controlled console shaker (Excella E25) at 37 °C. Full-strength tryptic soy broth (TSB) was made by dissolving 30 g of BD Bacto TSB powder in 1 L of deionized water. Purchased and acquired bacterial strains used were E. coli (ATCC 25922), P. aeruginosa (ATCC 9027), drug-resistant P. aeruginosa from ATCC Panel MP-23 (BAA 2108, BAA 2109, BAA 2110), and P. aeruginosa efflux knockout GKCW120 (PΔ6)[6] provided by Zgurskaya and co-workers at the University of Oklahoma.
(§5) Susceptibility testing was performed in biological triplicate using the broth microdilution method as outlined by the Clinical and Laboratory Standards Institute. […] Briefly, to each well, 1 μL of compound in DMSO, 89 μL of TSB, and 10 μL of bacterial inoculum, grown from a single colony in 10 mL of TSB for 4–6 h, were added. After incubation for 12–15 h at 37 °C, absorbance at 590 nm was read on a Biotek Synergy HTX Multimode plate reader. Data were processed by background subtracting the media absorbance and then normalizing the data to full bacterial growth with the vehicle only. MIC is defined as the lowest concentration of antibiotic or antibiotic/adjuvant combination that achieves ≥85% growth inhibition, which corresponds to no visible growth.
(§6) Initial antibacterial activity screen of compounds 4, 5, and S1-S6
(§7) Compounds 4, 5, and S1-S6 were screened for initial antibiotic activity against a susceptible laboratory strain of EC (designated EC 25922), and non-virulent, biofilm forming strain of PA (designated PA 9027), and PD6 (efflux knockout strain6) at 128 µg/mL in DMSO. Sterilization and Antimicrobial Susceptibility Assay procedures utilized were the same as described in the methods.
(§8) Table S1. Antibacterial activity screening results for compounds 4, 5, and S1-S6 at 128 µg/mL
(§9) Table S1. Antibacterial activity screening results for compounds 4, 5, and S1-S6 at 128 µg/mL.

[11] = system: drug-resistant P. aeruginosa BAA 2110; assay: Antimicrobial susceptibility (broth microdilution), BAA 2110; type: cell-based, Pseudomonas aeruginosa; conditions: Pseudomonas aeruginosa, BAA2110, read-out: antibacterial activity (MIC) BAA 2110
Description: as §4, §5

[12] = system: drug-resistant P. aeruginosa BAA 2108; assay: Antimicrobial susceptibility (broth microdilution), BAA 2108; type: cell-based, Pseudomonas aeruginosa; conditions: Pseudomonas aeruginosa, BAA2108, read-out: antibacterial activity (MIC) BAA 2108
Description: as §4, §5

[13] = system: drug-resistant P. aeruginosa BAA 2109; assay: Antimicrobial susceptibility (broth microdilution), BAA 2109; type: cell-based, Pseudomonas aeruginosa; conditions: Pseudomonas aeruginosa, BAA2109, read-out: antibacterial activity (MIC) BAA 2109
Description: as §4, §5

[14] = system: P. aeruginosa (ATCC 9027); assay: Antimicrobial susceptibility (broth microdilution), PA 9027; type: cell-based, Pseudomonas aeruginosa; conditions: Pseudomonas aeruginosa, ATCC9027; n = 3; >85% reduction in growth at OD 590 nm; read-out: antibacterial activity (MIC) PA 9027
Description: as §4, §5, §6, §7, §8, §9

[15] = inhibition of ATP synthesis activity

| SMILES | antibacterial activity (MIC) PΔ6 [1] | inhibition of EC ETC-driven H+ pumping, in words ([2]; 0-64 µg/mL, Figure S2) | Inhibition of the EC electron transport chain IC50 ([2]; EC (DK8/pASH20) vesicles) | IC50 ([3]; ATP synthesis IC50, DK8/pASH20 vesicles, wild-type PA ATP synthase in E. coli DK8, NADH-driven, end point luminescence assay) | Hill coefficient of dose response fit, DK8/pASH20 vesicles [3, 15] | PA ATP synthesis IC50 (PA ATP synthase [4]) | IC50 ([5]; ATP synthesis IC50, DK8/pASH20 cI65A vesicles, cI65A mutant, NADH-driven, luminescence assay) | Hill coefficient of dose response fit, DK8/pASH20 cI65A vesicles [5, 15] | Hill coefficient of dose response fit, PA vesicles (PA ATP synthase [6]) | Inhibition of the PA electron transport chain IC50 [7] | IC50 [8] | Hill coefficient of dose response fit, DK8/pASH20 cI65F vesicles [8, 15] | antibacterial activity (MIC) PA 9027 [9] | antibacterial activity (MIC) EC 25922 (E. coli (ATCC 25922)) | antibacterial activity (MIC) PΔ6 [10] | MIC [11] | MIC [12] | MIC [13] | MIC [14] |
| --- | --- | --- | --- | --- | --- | --- | --- | --- | --- | --- | --- | --- | --- | --- | --- | --- | --- | --- | --- |
| COC(=O)[C@H](Cc1ccc(O)cc1)NCc1cc2ccccc2nc1SC [Compound 1, reference compound] | >256 µg/mL | did not inhibit the electron transport chain strongly | >64 µg/mL | 27.7 µM and 28.8 µM | 1.3 | 10.0 µg/mL | 18 µM | 1.1 | 1.4 | >64[18] μg/mL | 22 µM | 1.4 | >256 µg/mL | >128 µg/mL | – | – | – | – | – |
| CNC(C)C1CCC(N)C(OC2C(N)CC(N)C(OC3OCC(C)(O)C(NC)C3O)C2O)O1 (stereo not shown) [gentamicin, reference compound] | – | – | – | – | – | – | – | – | – | – | – | – | – | – | >4 µg/mL | 4 to 8 µg/mL | 16 µg/mL | 2 µg/mL | 2 to 4 µg/mL |
